Experimental data from patent US20220298196A1, “NOVEL COMPOUND DERIVED FROM WATERMELON, AND COMPOSITION USING SAME” (HAGIHARA FARM PRODUCTION INSTITUTE CO., LTD., priority 2019, published 2022).

Experiments:
[1] = DPPH radical scavenging rate (antioxidative effect); format: biochemical; settings: 200 μM DPPH, 30 minutes, absorbance at 520 nm; compared with L-ascorbic acid
Experimental: In order to evaluate the antioxidation ability of the two novel compounds thus isolated, 200 μM DPPH (1,1-diphenyl-2-picrylhydrazyl) dissolved in 50% ethanol was prepared as a reagent. In the preparation procedure of the reagent, DPPH was first dissolved in ethanol, and an equal amount of Milli-Q water was then added to the mixture. Then, the resulting mixture was filtered with a 0.45 μm syringe filter to remove undissolved matters.
A sample solution in a volume of 150 μL and the 200 μM DPPH ethanol solution in a volume of 150 μL were mixed well in a 96-well plate. After the plate was left standing still for 30 minutes, the absorbance at 520 nm was measured using a microplate reader (Thermo Fisher Scientific, Multiscan-LUX). The radical scavenging rate was obtained using the formula (F1).
Note that in the formula, RD (%) represents the radical scavenging rate (%). ODblank520nm represents the absorbance at 520 nm of the reagent (DPPH) to which each of the sample solutions is not added, while ODsample520nm represents the absorbance at 520 nm of the reagent (DPPH) to which each of the sample solutions is added and mixed, followed by being left standing still for 30 minutes.
FIG. 2 is a graph of the result with a photograph of a state of the microplate. […]

[2] = system: MMP-1; test: Inhibition of MMP-1 protein expression after UV-B irradiation, western blotting; format: cell-based, human; settings: NHDF cells, 50 or 100 μM, precultured 24 hours, UV-B 25 mJ/cm2, 24 hours after irradiation
Experimental: Normal human dermal fibroblasts-Neo (NHDF, hereinafter, simply referred to as “NHDF cells”) were adjusted at 1×10^5 cells/mL and inoculated in a 12-well multi-well plate in a volume of 1 mL each and cultured to a confluent state. Subsequently, test samples (a final concentration of 50 or 100 μM (of each solvent-fractionated matter) (of each isolated substance)) were added to the cells and the cells were precultured for 24 hours. Subsequently, after rinsing with PBS twice, the cells were irradiated with UV-B with a light intensity of 25 mJ/cm^2.
The cells irradiated with ultraviolet rays were subjected to SDS-PAGE after 24 hours, and then western blotting was performed by transferring to PVDF (polyvinylidene difluoride), thereby detecting protein expression of MMP-1.
Referring to FIG. 3(a), in two columns in an upper part of the photograph, an upper column indicates the presence/absence of UV irradiation (“+”: irradiated with UV, “−”: not irradiated) and a lower column indicates samples (no sample indicated by “−”, 4G3HBE, and 4GBE). Further, a left part of the photograph indicates detection targets (MMP-1 and β-Actin) along a vertical direction. β-Actin is measured as a control.

[3] = system: NF-κB; test: Activation (phosphorylation) of signaling molecule after UV-B irradiation, western blotting; format: cell-based, human; settings: NHDF cells, precultured 24 hours, UV-B 25 mJ/cm2
Experimental: (§1) Since activation of p38MAP kinase, SAPK/JNK, and NF-κB involving in an inflammatory response is deeply involved in the induction and production of MMPs after UV-B irradiation, activation (via phosphorylation) of these signaling molecules was studied by the western blotting method.
(§2) More specifically, the NHDF cells were precultured for 24 hours in the same manner as described above, rinsed with PBS twice, irradiated with UV-B with a light intensity of 25 mJ/cm^2, and subjected to western blotting to examine phosphorylation of p38MAP, SAPK/JNK, and NF-κB.
(§3) The data were shown by average±standard error (n=3). The comparison between multiple groups was performed by using the Tukey-Kramer test method (p<0.05).
(§4) Referring to FIG. 4(b), the horizontal axis of the graph indicates conditions of the samples, that is, the presence/absence of UV-B irradiation (“+”: irradiated with UV, “−”: not irradiated), the presence/absence of 4G3HBE (“+”: presence, “−”: absence), and the presence/absence of 4GBE (“+”: presence, “−”: absence). Further, the vertical axis indicates changes in phosphorylation, that is, a relative ratio of phosphorylation activity. Referring to FIG. 4(b), p38MAP, SAPK/JNK, and phosphorylated NF-κB increased by UV-B irradiation. However, the expression of the signaling molecules was suppressed by the presence of 4G3HBE or 4GBE.

[4] = system: SAPK/JNK; test: as above; format: cell-based, human; settings: NHDF cells, precultured 24 hours, UV-B 25 mJ/cm2
Experimental: as §1, §2, §3, §4

[5] = system: p38MAP kinase; test: as above; format: cell-based, human; settings: NHDF cells, precultured 24 hours, UV-B 25 mJ/cm2
Experimental: as §1, §2, §3, §4

[6] = system: NHDF cells; test: Amount of intracellular reactive oxygen species (ROS), CM-H2DCFDA; format: cell-based, human; settings: 50 μM, precultured 24 hours, UV-B 25 mJ/cm2, 1 hour, control 1%, UV-B alone about 1.7%
Description: In the studies of “Antioxidative effect”, it was confirmed that 4G3HBE and 4GBE had approximately half of the antioxidation activity of vitamin C. On the other hand, according to “Inhibition of MMP-1 expression” and “Activation of signaling molecules”, it was thought that attenuation of the oxidative stress signal was induced by removal of ROS, generated by UV-B irradiation, by the antioxidation ability of 4G3HBE and 4GBE. Thus, the amount of the intracellular reactive oxygen species (ROS) was measured using CM-H2DCFDA, an indicator of ROS.
The NHDF cells (1.0×10^5 cells/mL) were cultured to a confluent state. Subsequently, 4G3HBE and 4GBE were each added to the cells at a final concentration of 50 μM, followed by preculturing for 24 hours. CM-H2DCFDA serving as a cell-permeable indicator of reactive oxygen was added to the cells at a final concentration of 10 μM one hour before ultraviolet ray irradiation. Subsequently, the cells were irradiated with UV-B with a light intensity of 25 mJ/cm^2 and further cultured for 1 hour in an incubator. Then, fluorescence was measured with an excitation wavelength of 495 nm and a fluorescent wavelength of 530 nm using a multimode microplate reader, Varioscan LUX. […]

CC(C)(O)C(OC(=O)/C=C/c1ccc(O)c(O)c1)C(=O)OCc1ccc(O[C@@H]2O[C@H](CO)[C@@H](O)[C@H](O)[C@H]2O)c(O)c1 (stereo partly drawn) [4G3HBE, 2-caffeoyl-3-hydroxy-3-methylbutyric 4′-β-D-glucopyranosyloxy-3′-hydroxybenzyl ester]
antioxidative activity (radical scavenging rate) relative to vitamin C [1]: approximately half that of vitamin C
expression of MMP-1 (protein, detection intensity) [2]: clearly suppressed the expression of MMP-1
activation of NF-κB (phosphorylation) [3]: significantly down-regulated
activation of SAPK/JNK (phosphorylation) [4]: significantly down-regulated
activation of p38MAP kinase (phosphorylation) [5]: significantly down-regulated
intracellular ROS level [6]: about 1.4%

CC(C)(O)C(OC(=O)/C=C/c1ccc(O)c(O)c1)C(=O)OCc1ccc(O[C@@H]2O[C@H](CO)[C@@H](O)[C@H](O)[C@H]2O)cc1 (stereo partly drawn) [4GBE, 2-caffeoyl-3-hydroxy-3-methylbutyric 4′-β-D-glucopyranosyloxybenzyl ester]
antioxidative activity (radical scavenging rate) relative to vitamin C [1]: approximately half that of vitamin C
expression of MMP-1 (protein, detection intensity) [2]: clearly suppressed the expression of MMP-1
activation of NF-κB (phosphorylation) [3]: significantly down-regulated
activation of SAPK/JNK (phosphorylation) [4]: significantly down-regulated
activation of p38MAP kinase (phosphorylation) [5]: significantly down-regulated
intracellular ROS level [6]: about 1.4%
